{"source": "patent US7595395B2", "about": "“Gabaergic agents to treat memory deficits” (priority 2005, dated 2009)", "key": {"C57B1/6 mice [1]": {"test_system": "C57B1/6 mice", "test": "Audio cued fear conditioning", "type": "in vivo", "details": "scopolamine impairment", "source_text": "(§1) Further, animal data for FIGS. 22-26 were obtained using experimental methodologies described in a previously published reference, Influence of benzodiazepine binding site ligands on fear-conditioned contextual memory European journal of Pharmacology, Volume 426, Issues 1-2, 24 Aug. 2001, Pages 45-54, Timothy M. DeLorey, Richard C. Lin, Brian McBrady, Xiaohui He, James M. Cook, Jelveh Lameh and Gilda H. Loew, which is incorporated by reference as if fully set forth here in its entirety. Selected sections of the reference are provided below:\n(§2) Male C57B1/6 mice were obtained from Charles Rivers Laboratories (Holister, Calif.) at 6 weeks of age. […] All animal protocols used in this study conform to the guidelines determined by the National Institute of Health (USA) Office for Protection from Research Risks and are approved by the Animal Care and Use Committee of the Palo Alto Veterans Administration Medical Center, Palo, Alto, Calif. […]\nBefore testing each day, the mice were moved to a holding room and allowed to acclimate for at least 30 min. […] Twenty-four hours later, contextual memory was assessed by placing the mice back into the freshly rescented (0.3% Ammonium hydroxide) conditioning chambers in which they were trained, for a 4-min test period in the absence of footshock. […] Data were analyzed by one-way analysis of variance(ANOVA) using GraphPad PRISM 2.01 (GraphPad Software). […]"}, "C57B1/6 mice [2]": {"test_system": "C57B1/6 mice", "test": "Spontaneous locomotive activity", "type": "in vivo", "details": "30 mg/kg", "source_text": "as §1, §2\nMice were allowed to acclimate to the test room for 30 min prior to drug injection. […] Spontaneous locomotor activity was measured via seven sets of photoelectric sensors evenly spaced along the length of the monitoring chamber, 4 cm above the floor of the chamber (San Diego Instruments, San Diego, Calif.). Total activity was recorded in arbitrary units reflective of the number of times a mouse interrupts the photoelectric sensors during a 10-min monitoring session. […]"}, "[3]": {"target": "α4β3γ2 benzodiazepine receptor GABA(A) isoform (UniProt P18507+P48169)", "test": "Radioligand competition binding, α4β3γ2 BzR/GABA(A) isoform", "design": "species or system human and rat", "description": "(§3) The affinity of all ligands at the 6 major recombinant GABAA/BzR subtypes was measured by competition for [^3H]Ro15-1788 binding to HEK-T cells expressing both human and rat GABAA/Bz receptors of composition α1β2γ2 (α1), α2β2γ2 (α2), α3β2γ2 (α3), α4β2γ2 (α4), α5β2γ2 (α5) and α6β2γ2 (α6). It is well known that the β2 and β3 subunits can be interchanged with no effect on Bz ligand affinity or efficacy. […] These studies are similar to those performed in the laboratory of Bryan Roth who has already expressed the receptors employing the work of Kucken et. al. and Gray et. al.\nIn brief, for membrane preparations, the cells were scraped on to the ice and diluted into 5 mL of phosphate buffered saline (pH=7.40) and cells pelleted by centrifugation for 5 min. at 4° C. The pellet was resuspended in 1 mL of 50 mM Tris-acetate buffer (pH 7.4) and centrifuged at 18,000 g for 20 min. […] Each pellet were diluted to 6 mL and then 100 μL of membranes were incubated with approximately 1 nM final concentration of [^3H]Ro 15-1788 in a total volume of 250 μL together with serial dilutions of test compound for 90 min. on ice. The membranes were harvested in polyethyleneimine-pretreated Whatman GF/C filters and after drying and addition of scintillation cocktail, counted in a scintillation counter. […]"}, "[4]": {"test_system": "αxβ3γ2 (α = 1-6) BzR/GABA(A) subtypes", "test": "Binding across the BzR/GABA(A) subtypes (subtype selectivity in words)", "design": "species or system human and rat", "description": "The binding affinity of XLi093 (8) in vitro was determined on α1-6β3γ2 LTK cells and is illustrated in the Scheme as shown in FIG. 2\nas §3\nIn brief, for membrane preparations, the cells were scraped on to the ice and diluted into 5 mL of phosphate buffered saline (pH=7.40) and cells pelleted by centrifugation for 5 min. at 4° C. The pellet was resuspended in 1 mL of 50 mM Tris-acetate buffer (pH 7.4) and centrifuged at 18,000 g for 20 min. […] The membranes were harvested in polyethyleneimine-pretreated Whatman GF/C filters and after drying and addition of scintillation cocktail, counted in a scintillation counter. […]"}, "α2β3γ2 GABAA receptor": {"target": "α2β3γ2 GABAA receptor (Rattus norvegicus, UniProt P18508+P23576)", "sequence (P23576 29-451)": "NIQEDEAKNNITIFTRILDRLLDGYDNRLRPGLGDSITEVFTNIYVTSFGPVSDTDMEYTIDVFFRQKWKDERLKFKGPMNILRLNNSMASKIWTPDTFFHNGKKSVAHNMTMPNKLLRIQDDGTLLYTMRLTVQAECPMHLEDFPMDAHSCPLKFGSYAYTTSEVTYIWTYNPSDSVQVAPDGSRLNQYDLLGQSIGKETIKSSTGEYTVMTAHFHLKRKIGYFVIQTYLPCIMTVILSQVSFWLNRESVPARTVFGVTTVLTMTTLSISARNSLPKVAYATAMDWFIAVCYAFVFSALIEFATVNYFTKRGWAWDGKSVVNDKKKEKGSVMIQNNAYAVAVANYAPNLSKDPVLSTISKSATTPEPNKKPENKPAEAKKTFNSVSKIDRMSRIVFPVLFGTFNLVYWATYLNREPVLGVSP", "sequence (P63079 26-473 partner)": "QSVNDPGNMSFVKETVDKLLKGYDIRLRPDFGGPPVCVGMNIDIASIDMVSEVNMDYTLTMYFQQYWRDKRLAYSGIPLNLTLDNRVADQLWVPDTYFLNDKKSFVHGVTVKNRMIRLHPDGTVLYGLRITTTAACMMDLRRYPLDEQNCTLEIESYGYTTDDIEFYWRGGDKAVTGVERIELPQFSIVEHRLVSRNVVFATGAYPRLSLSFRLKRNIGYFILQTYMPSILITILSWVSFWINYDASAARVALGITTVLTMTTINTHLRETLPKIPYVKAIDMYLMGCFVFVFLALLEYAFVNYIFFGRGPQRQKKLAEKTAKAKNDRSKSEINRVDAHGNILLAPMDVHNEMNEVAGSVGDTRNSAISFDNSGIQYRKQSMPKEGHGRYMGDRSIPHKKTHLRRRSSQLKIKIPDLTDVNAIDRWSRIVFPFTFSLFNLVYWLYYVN", "sequence (P18508 39-466)": "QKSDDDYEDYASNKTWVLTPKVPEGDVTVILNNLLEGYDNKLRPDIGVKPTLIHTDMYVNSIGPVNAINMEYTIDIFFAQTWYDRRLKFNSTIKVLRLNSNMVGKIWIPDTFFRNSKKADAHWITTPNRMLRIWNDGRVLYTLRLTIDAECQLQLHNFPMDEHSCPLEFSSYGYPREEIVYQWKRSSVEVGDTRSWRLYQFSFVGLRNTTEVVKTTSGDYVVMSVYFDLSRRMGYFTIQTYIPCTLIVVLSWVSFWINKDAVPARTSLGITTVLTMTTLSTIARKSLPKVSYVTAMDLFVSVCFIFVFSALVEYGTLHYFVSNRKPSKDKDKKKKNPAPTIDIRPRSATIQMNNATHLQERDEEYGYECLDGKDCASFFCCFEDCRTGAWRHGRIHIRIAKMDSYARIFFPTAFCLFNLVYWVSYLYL", "test": "Two-electrode voltage clamp in Xenopus oocytes, α2β3γ2", "details": "oocytes"}}, "note": "Like-named read-outs stand apart in the source and are kept apart here.", "data": [{"compound": "CCc1ccc2c(c1)C(=O)N(C)Cc1c(C(=O)OCCCOC(=O)c3ncn4c3CN(C)C(=O)c3cc(CC)ccc3-4)ncn1-2", "note": "[XLi356, 1,3-Bis(8-ethyl-5,6-dihydro-5-methyl-6-oxo-4H-imidazo[1,5a][1,4]benzodiazepine-3-carboxy)propyl diester]", "values": [{"measurement": "audio cued memory / audio cued fear conditioning (in words)", "setting": "C57B1/6 mice [1]; listed as XLI356", "value": "not able to reverse this type of memory"}, {"measurement": "audio cued memory / audio cued fear conditioning (in words)", "setting": "C57B1/6 mice [1]; listed as Xli356", "value": "no activity"}, {"measurement": "locomotion (in words)", "setting": "C57B1/6 mice [2]", "value": "reduced"}]}, {"compound": "CCOC(=O)c1ncn2c1CN=C(c1ccccc1)c1cc(-c3ccccc3)ccc1-2", "note": "[DM-I-81, Ethyl 8-phenyl-6-phenyl-4H-benzo[f]imidazo[1,5-a][1,4]diazepine-3-carboxylate]", "values": [{"measurement": "Ki", "setting": "[3]; Table I, means of two determinations, read-out: Ki α4", "value": "> 2", "unit": "µM"}, {"measurement": "Ki", "setting": "[3]; untitled table of lead compounds, unit inferred, read-out: α4", "value": "> 2", "unit": "µM"}, {"measurement": "affinity at other BzR/GABA(A) subtypes than α5 (in words)", "setting": "[4]", "value": "binds only to α5β3γ2 subtypes"}, {"measurement": "melting point", "value": "200 to 201", "unit": "°C"}]}, {"compound": "COCc1ncn2c1CN(C)C(=O)c1cc(Cl)ccc1-2", "note": "[PWZ-029, methyl(8-chloro-5,6-dihydro-5-methyl-6-oxo-4H-imidazo[1,5-α][1,4]benzodiazepin-3-yl)methyl ether]", "values": [{"measurement": "efficacy / modulation of GABA elicited currents at α2 (in words)", "setting": "α2β3γ2 GABAA receptor", "value": "very, very weak agonist activity"}]}]}
